# Measured values as given in ChEMBL document CHEMBL6078713, “Synthesis and mechanistic studies of 4-aminoquinoline-Isatin molecular hybrids and Schiff's bases as promising antimicrobial agents” (Eur J Med Chem, 2025).
# Experiments:
# Pseudomonas aeruginosa [1] = experiment: Antibacterial activity against Pseudomonas aeruginosa MTCC 2453 assessed as inhibition of bacterial growth incubated overnight by serial dilution based spectrophotometer; format: functional
# Escherichia coli [2] = experiment: Bactericidal activity against Escherichia coli MTCC 443 assessed as inhibition of bacterial growth incubated overnight; format: functional
# Enterococcus faecalis [3] = experiment: Ratio of MBC for antibacterial activity against Enterococcus faecalis MTCC 439 to MIC for bactericidal activity against Enterococcus faecalis MTCC 439; format: functional
# Escherichia coli [4] = experiment: Antibacterial activity against Escherichia coli MTCC 443 assessed as diameter of zone of inhibition at 500 ug/ml by agar disk diffusion method; format: functional; conditions: read-out: DIZ
# Salmonella typhi [5] = experiment: Bactericidal activity against Salmonella typhi assessed as inhibition of bacterial growth incubated overnight; format: functional, Salmonella enterica subsp. enterica serovar Typhi; conditions: Salmonella enterica
# Staphylococcus aureus [6] = experiment: Antibacterial activity against Staphylococcus aureus MTCC 902 assessed as diameter of zone of inhibition at 500 ug/ml by agar disk diffusion method; format: functional; conditions: read-out: DIZ
# Enterococcus faecalis [7] = experiment: Antibacterial activity against Enterococcus faecalis MTCC 439 assessed as diameter of zone of inhibition at 500 ug/ml by agar disk diffusion method; format: functional; conditions: read-out: DIZ
# Enterococcus faecalis [8] = experiment: Antibacterial activity against Enterococcus faecalis MTCC 439 assessed as inhibition of bacterial growth incubated overnight by serial dilution based spectrophotometer; format: functional
# Enterococcus faecalis [9] = experiment: Bactericidal activity against Enterococcus faecalis MTCC 439 assessed as inhibition of bacterial growth incubated overnight; format: functional
# Bacillus subtilis [10] = experiment: Antibacterial activity against Bacillus subtilis MTCC 736 assessed as diameter of zone of inhibition at 500 ug/ml by agar disk diffusion method; format: functional; conditions: read-out: DIZ
# Escherichia coli [11] = experiment: Ratio of MBC for antibacterial activity against Escherichia coli MTCC 443 to MIC for bactericidal activity against Escherichia coli MTCC 443; format: functional
# Staphylococcus aureus [12] = experiment: Antibacterial activity against Staphylococcus aureus MTCC 902 assessed as inhibition of bacterial growth incubated overnight by serial dilution based spectrophotometer; format: functional
# Escherichia coli [13] = experiment: Antibacterial activity against Escherichia coli MTCC 443 assessed as inhibition of bacterial growth incubated overnight by serial dilution based spectrophotometer; format: functional
# Pseudomonas aeruginosa [14] = experiment: Antibacterial activity against Pseudomonas aeruginosa MTCC 2453 assessed as diameter of zone of inhibition at 500 ug/ml by agar disk diffusion method; format: functional; conditions: read-out: DIZ
# Bacillus subtilis [15] = experiment: Antibacterial activity against Bacillus subtilis MTCC 736 assessed as inhibition of bacterial growth incubated overnight by serial dilution based spectrophotometer; format: functional
# Salmonella typhi [16] = experiment: Antibacterial activity against Salmonella typhi assessed as diameter of zone of inhibition at 500 ug/ml by agar disk diffusion method; format: functional, Salmonella enterica subsp. enterica serovar Typhi; conditions: Salmonella enterica, read-out: DIZ
# Salmonella typhi [17] = experiment: Antibacterial activity against Salmonella typhi assessed as inhibition of bacterial growth incubated overnight by serial dilution based spectrophotometer; format: functional, Salmonella enterica subsp. enterica serovar Typhi; conditions: Salmonella enterica
# Staphylococcus aureus [18] = experiment: Bactericidal activity against Staphylococcus aureus MTCC 902 assessed as inhibition of bacterial growth incubated overnight; format: functional
# Salmonella typhi [19] = experiment: Ratio of MBC for antibacterial activity against Salmonella typhi to MIC for bactericidal activity against Salmonella typhi; format: functional, Salmonella enterica subsp. enterica serovar Typhi
# Pseudomonas aeruginosa [20] = experiment: Bactericidal activity against Pseudomonas aeruginosa MTCC 2453 assessed as inhibition of bacterial growth incubated overnight; format: functional
# Bacillus subtilis [21] = experiment: Bactericidal activity against Bacillus subtilis MTCC 736 assessed as inhibition of bacterial growth incubated overnight; format: functional
# Staphylococcus aureus [22] = experiment: Ratio of MBC for antibacterial activity against Staphylococcus aureus MTCC 902 to MIC for bactericidal activity against Staphylococcus aureus MTCC 902; format: functional
# Bacillus subtilis [23] = experiment: Ratio of MBC for antibacterial activity against Bacillus subtilis MTCC 736 to MIC for bactericidal activity against Bacillus subtilis MTCC 736; format: functional
# Pseudomonas aeruginosa [24] = experiment: Ratio of MBC for antibacterial activity against Pseudomonas aeruginosa MTCC 2453 to MIC for bactericidal activity against Pseudomonas aeruginosa MTCC 2453; format: functional
SMILES,zone of inhibition at 500 µg/mL (Escherichia coli [4]),zone of inhibition at 500 µg/mL (Staphylococcus aureus [6]),zone of inhibition at 500 µg/mL (Enterococcus faecalis [7]),zone of inhibition at 500 µg/mL (Bacillus subtilis [10]),zone of inhibition at 500 µg/mL (Pseudomonas aeruginosa [14]),zone of inhibition at 500 µg/mL (Salmonella typhi [16]),further results
Oc1cccc(/C=N/CCNc2ccnc3cc(Cl)ccc23)c1,13 mm,10 mm,10 mm,9 mm,8 mm,10 mm,MIC (Pseudomonas aeruginosa [1]): > 512 µg/mL; MBC (Escherichia coli [2]): 256 µg/mL; Ratio (Enterococcus faecalis [3]): 1; MBC (Salmonella typhi [5]): 256 µg/mL; MIC (Enterococcus faecalis [8]): 512 µg/mL; MBC (Enterococcus faecalis [9]): 512 µg/mL; Ratio (Escherichia coli [11]): 1; MIC (Staphylococcus aureus [12]): 512 µg/mL; MIC (Escherichia coli [13]): 256 µg/mL; MIC (Bacillus subtilis [15]): > 512 µg/mL; MIC (Salmonella typhi [17]): 256 µg/mL; MBC (Staphylococcus aureus [18]): > 512 µg/mL; Ratio (Salmonella typhi [19]): 1
CC(C)c1ccc(/C=N/CCNc2ccnc3cc(Cl)ccc23)cc1,10 mm,9 mm,7 mm,8 mm,12 mm,10 mm,MIC (Pseudomonas aeruginosa [1]): 256 µg/mL; MBC (Escherichia coli [2]): 256 µg/mL; MBC (Salmonella typhi [5]): 256 µg/mL; MBC (Pseudomonas aeruginosa [20]): > 512 µg/mL; MIC (Enterococcus faecalis [8]): > 512 µg/mL; Ratio (Escherichia coli [11]): 1; MIC (Staphylococcus aureus [12]): 512 µg/mL; MIC (Escherichia coli [13]): 256 µg/mL; MIC (Bacillus subtilis [15]): > 512 µg/mL; MIC (Salmonella typhi [17]): 256 µg/mL; MBC (Staphylococcus aureus [18]): > 512 µg/mL; Ratio (Salmonella typhi [19]): 1
Clc1ccc2c(NCC/N=C/c3ccccc3Cl)ccnc2c1,8 mm,7 mm,9 mm,8 mm,9 mm,9 mm,
COc1ccc(/C=N/CCNc2ccnc3cc(Cl)ccc23)cc1,9 mm,8 mm,8 mm,6 mm,8 mm,9 mm,
Cc1cccc2c1NC(=O)/C2=N\CCNc1ccnc2cc(Cl)ccc12,11 mm,11 mm,,12 mm,12 mm,,MIC (Pseudomonas aeruginosa [1]): 256 µg/mL; MBC (Escherichia coli [2]): > 512 µg/mL; MBC (Pseudomonas aeruginosa [20]): > 512 µg/mL; MBC (Bacillus subtilis [21]): > 512 µg/mL; MIC (Enterococcus faecalis [8]): > 512 µg/mL; MIC (Staphylococcus aureus [12]): 256 µg/mL; Ratio (Staphylococcus aureus [22]): 1; MIC (Escherichia coli [13]): 256 µg/mL; MIC (Bacillus subtilis [15]): 256 µg/mL; MIC (Salmonella typhi [17]): > 512 µg/mL; MBC (Staphylococcus aureus [18]): 256 µg/mL
O=[N+]([O-])c1ccc(/C=N/CCNc2ccnc3cc(Cl)ccc23)cc1,12 mm,10 mm,9 mm,8 mm,8 mm,10 mm,MIC (Pseudomonas aeruginosa [1]): 512 µg/mL; MBC (Escherichia coli [2]): 256 µg/mL; Ratio (Enterococcus faecalis [3]): 1; MBC (Salmonella typhi [5]): 256 µg/mL; MBC (Pseudomonas aeruginosa [20]): > 512 µg/mL; MBC (Bacillus subtilis [21]): 512 µg/mL; MIC (Enterococcus faecalis [8]): 256 µg/mL; MBC (Enterococcus faecalis [9]): 256 µg/mL; Ratio (Escherichia coli [11]): 1; MIC (Staphylococcus aureus [12]): 256 µg/mL; MIC (Escherichia coli [13]): 256 µg/mL; Ratio (Bacillus subtilis [23]): 1; MIC (Bacillus subtilis [15]): 512 µg/mL; MIC (Salmonella typhi [17]): 256 µg/mL; MBC (Staphylococcus aureus [18]): > 512 µg/mL; Ratio (Salmonella typhi [19]): 1
O=C1Nc2ccccc2/C1=N/CCNc1ccnc2cc(Cl)ccc12,11 mm,,,10 mm,,,
COc1ccc2c(c1)NC(=O)/C2=N\CCNc1ccnc2cc(Cl)ccc12,16 mm,,,,,10 mm,
Oc1ccc(/C=N/CCNc2ccnc3cc(Cl)ccc23)cc1,10 mm,9 mm,6 mm,8 mm,10 mm,8 mm,
Clc1ccc2c(NCC/N=C/c3ccc(Br)cc3)ccnc2c1,,,8 mm,,,,
Clc1ccc2c(NCC/N=C/c3cccs3)ccnc2c1,9 mm,7 mm,8 mm,8 mm,6 mm,8 mm,
Clc1ccc2c(NCC/N=C/c3c[nH]c4ccccc34)ccnc2c1,10 mm,8 mm,9 mm,8 mm,7 mm,9 mm,
O=[N+]([O-])c1cccc(/C=N/CCNc2ccnc3cc(Cl)ccc23)c1,9 mm,8 mm,8 mm,6 mm,6 mm,9 mm,
O=C1Nc2cc(F)ccc2/C1=N/CCNc1ccnc2cc(Cl)ccc12,,7 mm,,,,7 mm,
FC(F)(F)c1ccc(/C=N/CCNc2ccnc3cc(Cl)ccc23)cc1,10 mm,7 mm,8 mm,7 mm,8 mm,9 mm,
COc1ccc(/C=N/CCNc2ccnc3cc(Cl)ccc23)cc1OC,8 mm,8 mm,7 mm,7 mm,7 mm,8 mm,
O=C1Nc2ccc(Br)cc2/C1=N/CCNc1ccnc2cc(Cl)ccc12,11 mm,,,,,11 mm,
Cc1cc(C)c2c(c1)/C(=N/CCNc1ccnc3cc(Cl)ccc13)C(=O)N2,11 mm,6 mm,,,,,
Clc1ccc2c(NCC/N=C/c3ccccc3)ccnc2c1,10 mm,8 mm,8 mm,7 mm,8 mm,6 mm,
Clc1ccc2c(NCC/N=C/c3ccccn3)ccnc2c1,11 mm,8 mm,8 mm,9 mm,9 mm,7 mm,MIC (Pseudomonas aeruginosa [1]): 512 µg/mL; MBC (Escherichia coli [2]): 512 µg/mL; Ratio (Enterococcus faecalis [3]): 1; MBC (Pseudomonas aeruginosa [20]): 512 µg/mL; MBC (Bacillus subtilis [21]): > 512 µg/mL; MIC (Enterococcus faecalis [8]): 512 µg/mL; MBC (Enterococcus faecalis [9]): 512 µg/mL; Ratio (Escherichia coli [11]): 2; MIC (Staphylococcus aureus [12]): 512 µg/mL; MIC (Escherichia coli [13]): 256 µg/mL; MIC (Bacillus subtilis [15]): 512 µg/mL; MIC (Salmonella typhi [17]): > 512 µg/mL; Ratio (Pseudomonas aeruginosa [24]): 1; MBC (Staphylococcus aureus [18]): > 512 µg/mL
Clc1ccc2c(NCC/N=C/c3ccc[nH]3)ccnc2c1,9 mm,10 mm,8 mm,9 mm,7 mm,9 mm,MIC (Pseudomonas aeruginosa [1]): > 512 µg/mL; MBC (Escherichia coli [2]): 512 µg/mL; Ratio (Enterococcus faecalis [3]): 1; MBC (Bacillus subtilis [21]): 512 µg/mL; MIC (Enterococcus faecalis [8]): 512 µg/mL; MBC (Enterococcus faecalis [9]): 512 µg/mL; Ratio (Escherichia coli [11]): 2; MIC (Staphylococcus aureus [12]): 512 µg/mL; MIC (Escherichia coli [13]): 256 µg/mL; Ratio (Bacillus subtilis [23]): 1; MIC (Bacillus subtilis [15]): 512 µg/mL; MIC (Salmonella typhi [17]): > 512 µg/mL; MBC (Staphylococcus aureus [18]): > 512 µg/mL
COc1cc(/C=N/CCNc2ccnc3cc(Cl)ccc23)ccc1O,9 mm,6 mm,7 mm,,7 mm,6 mm,
CN(C)c1ccc(/C=N/CCNc2ccnc3cc(Cl)ccc23)cc1,10 mm,9 mm,8 mm,8 mm,7 mm,7 mm,
COc1ccc2c(c1)/C(=N/CCNc1ccnc3cc(Cl)ccc13)C(=O)N2,,,10 mm,,11 mm,,
Cc1ccc(/C=N/CCNc2ccnc3cc(Cl)ccc23)cc1,8 mm,6 mm,6 mm,,8 mm,6 mm,
Clc1ccc(/C=N/CCNc2ccnc3cc(Cl)ccc23)cc1,6 mm,,6 mm,7 mm,7 mm,6 mm,
O=C1Nc2c(cccc2[N+](=O)[O-])/C1=N/CCNc1ccnc2cc(Cl)ccc12,,8 mm,,11 mm,,,
